How the values were obtained:
[1] = tested on: ERK phosphorylation level in DLD-1 cells; assay: Inhibition of ERK phosphorylation level in DLD-1 cells (intracellular western blot); type: cell-based; details: summary statement
Method: Intracellular western blot quantitative analysis was used to detect the inhibitory level of compounds on ERK phosphorylation in DLD-1 cells.
DLD-1 cells (ATCC, CCL-221) were seeded in a T75 culture flask at 2.5×10^6 cells/flask, and cultured in a RPMI 1640 medium containing 10% FBS for 2 days. On day 3, the cells were seeded on a 384-well plate, and cultured overnight at 37 °C, 5% CO2. After overnight culture, the plate was added with serially diluted compounds (the final content of DMSO was 0.5%), the negative group was added with DMSO, and incubated in a 37 °C, 5% CO2 incubator.
The cells were fixed, washed once with PBS, treated to disrupt membranes, and blocked at room temperature for 1 h. The blocking solution was removed. The plate was added with primary antibody (CST, Cat. No. #4370S), and incubated overnight at 4 °C The plate was washed 3 times with PBST (PBS solution added with 0.05% Tween-20), and soaked for 2 min each time. The plate was added with secondary antibody (LI-COR, Cat. No. 926-32211), and incubated at room temperature in the dark. The plate was washed 3 times with PBST, and soaked for 2 min each time.
The plate was centrifuged at 1000 rpm for 1 min, scanned on a two-color infrared laser imaging system (Odyssey® CLX) to read the signal.
Relative signal=800-channel signal values/700-channel signal values. […]
IC50 values were calculated using Graphpad 5 software.

[2] = tested on: Mia Paca-2 tumor; assay: In vivo efficacy on Mia Paca-2 pancreatic cancer (alone or with trametinib); set-up: species or system mice
Method: (§1) After one week of adaptive feeding of mice, Mia Paca-2 cells in a logarithmic phase were resuspended in serum-free DMEM, and then mixed with Matrigel in a ratio of 1:1. 1×10^7 Mia Paca-2 cells were inoculated subcutaneously at the right flank at 100 μL per mouse, and tumor growth was observed regularly. When the tumor grew to an average volume of 150 to 200 mm^3, the mice were randomly divided into a model group and an administration group (single drug, in combination with trametinib) based on the tumor size and body weight. The tumor size and body weight were measured and recorded before and during the administration. After the treatment, the tumor size in the model group was compared with that in the administration group to determine the efficacy.

[3] = tested on: LOVO tumor; assay: In vivo efficacy on LOVO colorectal cancer; set-up: species or system mice
Method: as §1, with “LOVO” for “Mia Paca-2”, “F12K, 5×10^6 LOVO” for “DMEM, and then mixed with Matrigel in a ratio of 1:1. 1×10^7 Mia Paca-2”, “group” for “group (single drug, in combination with trametinib)”

Compound: Cc1nc(N[C@H](C)c2cccc(S(F)(F)(F)(F)F)c2)c2cn(C3(CF)CC3)c(=O)cc2n1 [compound of formula I, (R)-6-(1-(fluoromethyl)cyclopropyl)-2-methyl-4-((1-(3-(pentafluorosulfanyl)phenyl)ethyl)amino)pyrido[4,3-d]pyrimidin-7(6H)-one]
- inhibitory effect on the ERK phosphorylation level in DLD-1 cells [1]: significant inhibitory effect
- inhibitory effect on Mia Paca-2 tumor growth ([2]; alone or in combination with trametinib): significant inhibitory effect
- combined use with trametinib vs single use, Mia Paca-2 tumor growth ([2]; in combination with trametinib): more effective than the single use
- inhibitory effect on LOVO tumor tissue growth vs control compound II ([3]; comparison with control compound II): better than that of the control compound II
- inhibitory effect on LOVO tumor tissue growth ([3]; mouse, in vivo): significant inhibitory effect

From patent publication US20260337190A1, “CRYSTAL FORM OF PYRIDINOPYRIMIDINONE COMPOUND, ACID SALT THEREOF, CRYSTAL FORM OF ACID SALT THEREOF, AND USE” (Wuhan Humanwell Innovative Drug Research and Development …, priority 2022, published 2026)
